This is an account of results in US9957271B2, “Substituted bicyclic aza-heterocycles and analogues as sirtuin modulators” (GlaxoSmithKline, LLC, priority 2012, dated 2018).

Structures are written as SMILES.

This experiment addresses T1, SIRT1 (Homo sapiens, UniProt Q96EB6).
T1 sequence (Q96EB6 1-747): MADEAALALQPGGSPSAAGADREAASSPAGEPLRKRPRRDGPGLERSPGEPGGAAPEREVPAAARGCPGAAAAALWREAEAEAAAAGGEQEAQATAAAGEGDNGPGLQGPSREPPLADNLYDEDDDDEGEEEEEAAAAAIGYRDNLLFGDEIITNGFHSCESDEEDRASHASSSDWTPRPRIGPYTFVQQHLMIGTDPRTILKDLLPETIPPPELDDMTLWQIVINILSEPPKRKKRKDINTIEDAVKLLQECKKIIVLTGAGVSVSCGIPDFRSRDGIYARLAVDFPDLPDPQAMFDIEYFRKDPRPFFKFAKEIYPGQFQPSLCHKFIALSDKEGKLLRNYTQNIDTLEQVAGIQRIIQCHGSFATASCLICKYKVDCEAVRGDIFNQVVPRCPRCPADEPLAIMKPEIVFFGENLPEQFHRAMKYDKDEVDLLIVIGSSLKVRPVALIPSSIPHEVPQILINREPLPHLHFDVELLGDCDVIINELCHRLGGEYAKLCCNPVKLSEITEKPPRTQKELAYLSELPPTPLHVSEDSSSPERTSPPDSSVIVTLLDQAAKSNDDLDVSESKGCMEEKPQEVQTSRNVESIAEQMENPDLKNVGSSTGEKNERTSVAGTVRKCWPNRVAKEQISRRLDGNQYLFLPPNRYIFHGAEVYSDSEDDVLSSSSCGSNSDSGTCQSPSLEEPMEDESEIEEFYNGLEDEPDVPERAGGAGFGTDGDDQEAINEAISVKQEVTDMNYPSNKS
Kind of experiment: TAMRA based mass spectrometry assay of SIRT1 activity. Type of experiment: biochemical. The following applies: TAMRA peptide substrate; for TAMRA EC1.5: concentration giving 150% activation of SIRT1; for Emax: percent maximum fold activation, read-out: TAMRA % Fold Act. The gist of the method:
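Deacetylation of a biotinylated, TAMRA-tagged p53-based peptide (0.5 μM) by 10 nM His-tagged SIRT1 with 120 μM βNAD+, 25 °C for 25 min, pH 8 Tris-acetate buffer, across a compound concentration range. Quenched by formic acid and read by mass spec as product peptide or OAADPR; activity relative to DMSO reactions, nicotinamide defining maximal inhibition.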

Consider `Cc1nc2ccc(-c3ccccc3C(F)(F)F)nn2c1C(=O)Nc1ccncc1F` [Compound 464], for which the “TAMRA EC1.5” value is recorded as “A (EC1.5<1 μM)” and the Emax is at least 350%.

Consider `Cc1nc2ccc(-c3ccccc3C(F)(F)F)nn2c1C(=O)Nc1ccc(F)cn1` [Compound 465], for which the “TAMRA EC1.5” value was “A (EC1.5<1 μM)” and the Emax was at least 350%.

Regarding `Cc1nc2c(C)cc(-c3ccccc3C(F)(F)F)nn2c1C(=O)Nc1cncc(OC[C@H](O)CO)n1` [Compound 468], the “TAMRA EC1.5” value is given as “A (EC1.5<1 μM)” and the Emax is at least 350%.

Turning to `Cc1nc2ccc(-c3ccccc3OC(F)(F)F)nn2c1C(=O)Nc1cccnn1` [Compound 470], the “TAMRA EC1.5” value is listed as “A (EC1.5<1 μM)” and the Emax is at least 350%.

Turning to `Cc1nc2ccc(-c3ccccc3OC(F)(F)F)nn2c1C(=O)Nc1cnccn1` [Compound 471], the “TAMRA EC1.5” value was “A (EC1.5<1 μM)” and the Emax was at least 350%.

As for `Cc1nc2c(C)cc(-c3ccccc3C(F)(F)F)nn2c1C(=O)Nc1ccc(F)cn1` [Compound 474], the “TAMRA EC1.5” value is on record as “A (EC1.5<1 μM)” and the Emax is at least 350%.

On to `COc1nccc(NC(=O)c2c(C)nc3ccc(-c4ccccc4C(F)(F)F)nn23)n1` [Compound 476], for which the “TAMRA EC1.5” value was “A (EC1.5<1 μM)” and the Emax is at least 350%.

With `COc1nccc(NC(=O)c2c(C)nc3ccc(-c4ccccc4OC(F)(F)F)nn23)n1` [Compound 477], the “TAMRA EC1.5” value is given as “A (EC1.5<1 μM)” and the Emax is at least 350%.

`Cc1nc2c(C)cc(-c3ccccc3OC(F)(F)F)nn2c1C(=O)Nc1cccnn1` [Compound 479]: the “TAMRA EC1.5” value is “A (EC1.5<1 μM)” and the Emax was at least 350%.

In the case of `Cc1nc(NC(=O)c2c(C)nc3c(C)cc(-c4ccccc4OC(F)(F)F)nn23)sc1C` [Compound 482], the “TAMRA EC1.5” value is “A (EC1.5<1 μM)” and the Emax was at least 350%.

As for `O=C(Nc1cccc(N2CCOCC2)n1)c1cnc2ccc(N3CC[C@@H](F)C3)nn12` [Compound 488], the “TAMRA EC1.5” value is given as “B (EC1.5 1-25 μM)” and the Emax is at least 350%.

`Cc1cc(C)nc(NC(=O)c2cnc3ccc(N4CC[C@@H](F)C4)nn23)c1` [Compound 491]: the “TAMRA EC1.5” value is reported as “B (EC1.5 1-25 μM)” and the Emax is under 350%.

As to `Cc1cc(C)nc(NC(=O)c2cnc3ccc(N4CCC(F)(F)C4)nn23)c1` [Compound 492], the “TAMRA EC1.5” value is on record as “B (EC1.5 1-25 μM)” and the Emax is under 350%.

With `Cc1cc(C)nc(NC(=O)c2c(C)nc3c(C)cc(-c4ccccc4OC(F)(F)F)nn23)c1` [Compound 493], the “TAMRA EC1.5” value was “A (EC1.5<1 μM)” and the Emax was at least 350%.

Take `Cc1nc2c(C)cc(-c3ccccc3OC(F)(F)F)nn2c1C(=O)Nc1ccncc1F` [Compound 494]: the “TAMRA EC1.5” value is “A (EC1.5<1 μM)” and the Emax was at least 350%.

Consider `Cc1nc2c(C)cc(-c3ccccc3OC(F)(F)F)nn2c1C(=O)Nc1ccc(F)cn1` [Compound 495], for which the “TAMRA EC1.5” value was “A (EC1.5<1 μM)” and the Emax is under 350%.

For `Cc1nc2ccc(-c3ccccc3OC(F)(F)F)nn2c1C(=O)Nc1ccncc1` [Compound 497], the “TAMRA EC1.5” value is listed as “A (EC1.5<1 μM)” and the Emax is at least 350%.

On to `Cc1nc2ccc(-c3ccccc3C(F)(F)F)nn2c1C(=O)Nc1ccccn1` [Compound 498], for which the “TAMRA EC1.5” value was “A (EC1.5<1 μM)” and the Emax is at least 350%.

In the case of `Cc1cccc(NC(=O)c2cnn3ccc(-c4ccccc4C(F)(F)F)nc23)n1` [Compound 500], the “TAMRA EC1.5” value is “A (EC1.5<1 μM)” and the Emax is at least 350%.

On to `Cc1ccnc(NC(=O)c2cnn3ccc(-c4ccccc4C(F)(F)F)nc23)c1` [Compound 501], for which the “TAMRA EC1.5” value is recorded as “A (EC1.5<1 μM)” and the Emax was at least 350%.

As for `Cc1cc(C)nc(NC(=O)c2cnn3ccc(-c4ccccc4C(F)(F)F)nc23)c1` [Compound 502], the “TAMRA EC1.5” value is reported as “A (EC1.5<1 μM)” and the Emax was at least 350%.

With `Cc1cc(NC(=O)c2cnn3ccc(-c4ccccc4C(F)(F)F)nc23)nc(C)n1` [Compound 503], the “TAMRA EC1.5” value was “A (EC1.5<1 μM)” and the Emax was at least 350%.

In the case of `Cc1cc(NC(=O)c2cnn3ccc(-c4ccccc4C(F)(F)F)nc23)cc(C)n1` [Compound 504], the “TAMRA EC1.5” value is “A (EC1.5<1 μM)” and the Emax is at least 350%.

For `O=C(Nc1nccs1)c1cnn2ccc(-c3ccccc3C(F)(F)F)nc12` [Compound 506], the “TAMRA EC1.5” value is reported as “A (EC1.5<1 μM)” and the Emax was at least 350%.

On to `Cc1nc(NC(=O)c2cnn3ccc(-c4ccccc4C(F)(F)F)nc23)sc1C` [Compound 509], for which the “TAMRA EC1.5” value was “A (EC1.5<1 μM)” and the Emax was at least 350%.

With `CN(C)[C@H]1CCN(c2ccc3ncc(C(=O)Nc4cccc(N5CCOCC5)n4)n3n2)C1` [Compound 510], the “TAMRA EC1.5” value is listed as “B (EC1.5 1-25 μM)” and the Emax was under 350%.

In the case of `Cc1cc(C)nc(NC(=O)c2cnc3ccc(N4CC[C@H](N(C)C)C4)nn23)c1` [Compound 512], the “TAMRA EC1.5” value is listed as “B (EC1.5 1-25 μM)” and the Emax was under 350%.

Take `Cc1cc(-c2ccccc2C(F)(F)F)nn2c(C(=O)Nc3ccncn3)cnc12` [Compound 515]: the “TAMRA EC1.5” value is reported as “A (EC1.5<1 μM)” and the Emax is at least 350%.

Consider `COc1nccc(NC(=O)c2cnn3ccc(-c4ccccc4C(F)(F)F)nc23)n1` [Compound 519], for which the “TAMRA EC1.5” value is reported as “A (EC1.5<1 μM)” and the Emax was at least 350%.

As to `O=C(Nc1cnn2ccc(-c3ccccc3C(F)(F)F)nc12)c1cccc(O)n1` [Compound 520], the “TAMRA EC1.5” value is on record as “B (EC1.5 1-25 μM)” and the Emax is under 350%.

With `Cc1cccc(C(=O)Nc2cnn3ccc(-c4ccccc4C(F)(F)F)nc23)n1` [Compound 522], the “TAMRA EC1.5” value is given as “A (EC1.5<1 μM)” and the Emax was at least 350%.

As for `Cc1cnc(C(=O)Nc2cnn3ccc(-c4ccccc4C(F)(F)F)nc23)s1` [Compound 525], the “TAMRA EC1.5” value is reported as “A (EC1.5<1 μM)” and the Emax is at least 350%.

With `Cc1nc(C(=O)Nc2cnn3ccc(-c4ccccc4C(F)(F)F)nc23)c(C)s1` [Compound 526], the “TAMRA EC1.5” value was “A (EC1.5<1 μM)” and the Emax is at least 350%.

On to `Cc1cc(NC(=O)c2cnc3c(C)cc(-c4ccccc4C(F)(F)F)nn23)cc(C)n1` [Compound 528], for which the “TAMRA EC1.5” value is “A (EC1.5<1 μM)” and the Emax is at least 350%.

`O=C(Nc1ccncc1)c1cnn2ccc(-c3ccccc3OC(F)(F)F)nc12` [Compound 531]: the “TAMRA EC1.5” value is given as “A (EC1.5<1 μM)” and the Emax is at least 350%.

On to `O=C(Nc1cnccn1)c1cnn2ccc(-c3ccccc3OC(F)(F)F)nc12` [Compound 532], for which the “TAMRA EC1.5” value is listed as “A (EC1.5<1 μM)” and the Emax is at least 350%.

Turning to `O=C(Nc1cccc(N2CCOCC2)n1)c1cnn2ccc(-c3ccccc3OC(F)(F)F)nc12` [Compound 534], the “TAMRA EC1.5” value was “A (EC1.5<1 μM)” and the Emax is at least 350%.

`O=C(Nc1cccc(N2CC3(COC3)C2)n1)c1cnc2ccc(-c3ccccc3C(F)(F)F)nn12` [Compound 537]: the “TAMRA EC1.5” value is on record as “A (EC1.5<1 μM)” and the Emax was at least 350%.

Regarding `O=C(Nc1cccc(N2CC3(CCO3)C2)n1)c1cnc2ccc(-c3ccccc3C(F)(F)F)nn12` [Compound 538], the “TAMRA EC1.5” value was “A (EC1.5<1 μM)” and the Emax is at least 350%.

As to `Cc1cccc(NC(=O)c2cnc3c(C)cc(-c4ccccc4C(F)(F)F)nn23)n1` [Compound 539], the “TAMRA EC1.5” value is reported as “A (EC1.5<1 μM)” and the Emax is at least 350%.

In the case of `Cc1cc(NC(=O)c2cnc3c(C)cc(-c4ccccc4C(F)(F)F)nn23)ccn1` [Compound 540], the “TAMRA EC1.5” value is “A (EC1.5<1 μM)” and the Emax was at least 350%.

Regarding `COc1nccc(NC(=O)c2c(C)nc3c(C)cc(-c4ccccc4C(F)(F)F)nn23)n1` [Compound 543], the “TAMRA EC1.5” value is given as “A (EC1.5<1 μM)” and the Emax was at least 350%.

In the case of `Cc1nc2c(C)cc(-c3ccccc3C(F)(F)F)nn2c1C(=O)Nc1cccc(N2CC3(CCO3)C2)n1` [Compound 544], the “TAMRA EC1.5” value is reported as “A (EC1.5<1 μM)” and the Emax was at least 350%.

As for `Cc1cc(-c2ccccc2C(F)(F)F)nn2c(C(=O)Nc3cccc(N4CC5(COC5)C4)n3)cnc12` [Compound 546], the “TAMRA EC1.5” value was “A (EC1.5<1 μM)” and the Emax was at least 350%.

On to `Cc1nn2ccc(-c3ccccc3C(F)(F)F)nc2c1C(=O)Nc1ccncn1` [Compound 547], for which the “TAMRA EC1.5” value is recorded as “A (EC1.5<1 μM)” and the Emax was at least 350%.

As for `Cc1nn2ccc(-c3ccccc3C(F)(F)F)nc2c1C(=O)Nc1ccccn1` [Compound 548], the “TAMRA EC1.5” value is “A (EC1.5<1 μM)” and the Emax was at least 350%.
